Reference: patent US8859569B2, “Substituted annellated pyrimidines and use thereof” (Bayer Pharma Aktiengesellschaft, priority 2011, dated 2014)

Legend:
[1] = biological target: T1, recombinant guanylate cyclase reporter cell line (Rattus norvegicus, UniProt P19686+P20595); assay: Action on recombinant guanylate cyclase reporter cell line; format: cell-based
T1 construct: expressed in transfected cells
T1 sequence (P20595 1-619): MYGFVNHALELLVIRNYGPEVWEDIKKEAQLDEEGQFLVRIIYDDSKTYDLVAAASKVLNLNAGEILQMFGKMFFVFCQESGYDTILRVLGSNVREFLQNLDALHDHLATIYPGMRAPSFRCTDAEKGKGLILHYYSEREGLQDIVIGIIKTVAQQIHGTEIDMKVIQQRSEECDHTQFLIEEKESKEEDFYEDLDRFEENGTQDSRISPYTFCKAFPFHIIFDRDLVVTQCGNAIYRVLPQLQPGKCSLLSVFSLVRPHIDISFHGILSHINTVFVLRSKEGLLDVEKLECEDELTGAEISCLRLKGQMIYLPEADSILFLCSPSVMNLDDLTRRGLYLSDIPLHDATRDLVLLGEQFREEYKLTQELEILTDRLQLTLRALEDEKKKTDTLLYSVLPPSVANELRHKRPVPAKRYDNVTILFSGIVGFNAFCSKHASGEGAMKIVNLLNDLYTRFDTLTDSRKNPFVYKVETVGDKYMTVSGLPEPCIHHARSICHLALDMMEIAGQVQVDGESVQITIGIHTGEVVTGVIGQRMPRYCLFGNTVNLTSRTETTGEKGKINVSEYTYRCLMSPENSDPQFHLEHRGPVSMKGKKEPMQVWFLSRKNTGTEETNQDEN
T1 sequence (P19686 1-690): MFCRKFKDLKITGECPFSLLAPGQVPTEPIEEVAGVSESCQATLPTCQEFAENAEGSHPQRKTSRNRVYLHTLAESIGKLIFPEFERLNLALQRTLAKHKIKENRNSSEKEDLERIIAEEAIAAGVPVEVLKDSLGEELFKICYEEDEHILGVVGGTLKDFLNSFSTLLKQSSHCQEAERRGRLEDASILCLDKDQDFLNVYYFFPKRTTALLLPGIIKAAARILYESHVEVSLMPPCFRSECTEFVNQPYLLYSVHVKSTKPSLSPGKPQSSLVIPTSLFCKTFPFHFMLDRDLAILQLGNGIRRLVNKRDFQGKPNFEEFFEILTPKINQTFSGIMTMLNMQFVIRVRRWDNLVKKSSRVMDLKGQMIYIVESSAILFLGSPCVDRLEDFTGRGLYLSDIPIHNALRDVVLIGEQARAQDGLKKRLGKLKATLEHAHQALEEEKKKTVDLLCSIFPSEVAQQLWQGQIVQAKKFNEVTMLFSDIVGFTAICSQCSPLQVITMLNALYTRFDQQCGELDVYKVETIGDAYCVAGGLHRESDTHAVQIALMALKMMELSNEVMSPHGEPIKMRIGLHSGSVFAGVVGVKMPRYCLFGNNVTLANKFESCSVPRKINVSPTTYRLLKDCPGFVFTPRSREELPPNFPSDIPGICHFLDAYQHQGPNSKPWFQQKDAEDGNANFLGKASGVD
Description: B-2. Action on Recombinant Guanylate Cyclase Reporter Cell Line
The cellular action of the compounds according to the invention is determined on a recombinant guanylate cyclase reporter cell line, as described in F. Wunder et al., Anal. Biochem. 339, 104-112 (2005).

[2] = biological target: T2, human phosphodiesterase 5 (PDE-5) (Homo sapiens, UniProt O76074); assay: Inhibition of human phosphodiesterase 5 (PDE-5), SPA assay; format: biochemical; settings: PDE-5 preparation from human platelets, [8-3H]cGMP substrate
T2 construct: PDE-5 preparations are obtained from human platelets by lysis; from tissue; host or cells: human platelets
Description: B-6. Inhibition of Human Phosphodiesterase 5 (PDE-5)
PDE-5 preparations are obtained from human platelets by lysis (Microfluidizer®, 800 bar, 3 passages), followed by centrifugation (75000 g, 60 min, 4° C.) and ion-exchange chromatography of the supernatant on a Mono Q 10/10 column (linear sodium chloride gradient, elution with a 0.2-0.3M solution of sodium chloride in buffer (20 mM Hepes pH 7.2, 2 mM magnesium chloride). Fractions that have PDE-5 activity are combined (PDE-5 preparation) and stored at −80° C.
For determining their in-vitro action on human PDE-5, the test substances are dissolved in 100% DMSO and serial dilutions are prepared. Typically, dilution series (1:3) from 200 μM to 0.091 μM are prepared (resultant final concentrations in the test: 4 μM to 0.0018 μM). In each case 2 μL of the diluted solutions of the substance are put in the wells of microtitre plates (Isoplate-96/200W; Perkin-Elmer). Then 50 μL of a dilution of the PDE-5 preparation described above is added. The dilution of the PDE-5 preparation is selected so that during subsequent incubation less than 70% of the substrate is reacted (typical dilution: 1:100; dilution buffer: 50 mM Tris/hydrochloric acid pH 7.5, 8.3 mM magnesium chloride, 1.7 mM EDTA, 0.2% BSA). The substrate [8-^3H]cyclic guanosine-3′,5′-monophosphate (1 μCi/μL; Perkin-Elmer) is diluted 1:2000 with assay buffer (50 mM Tris/hydrochloric acid pH 7.5, 8.3 mM magnesium chloride, 1.7 mM EDTA) to a concentration of 0.0005 μCi/μL. The enzyme reaction is finally started by adding 50 μL (0.025 μCi) of the diluted substrate. The test preparations are incubated for 60 min at room temperature and the reaction is stopped by adding 25 μL of a suspension of 18 mg/mL of Yttrium Scintillation Proximity Beads in water (phosphodiesterase beads for SPA assays, RPNQ 0150, Perkin-Elmer). The microtitre plates are sealed with film and left to stand for 60 min at room temperature. Then the plates are measured for 30 s per well in a Microbeta scintillation counter (Perkin-Elmer). IC50 values are determined on the basis of the graphs plotted of the substance concentration versus the percentage PDE-5 inhibition.

| SMILES | MEC (minimal effective concentration) [1] [μm] | IC50 [2] [nM] |
| --- | --- | --- |
| CC1(C)C(=O)Nc2nc(-c3nn(Cc4ccccc4F)c4ncccc34)nc(NC[C@H]3CNC(=O)C3)c21 [Example 66, 2-[1-(2-fluorobenzyl)-1H-pyrazolo[3,4-b]pyridin-3-yl]-5,5-dimethyl-4-{[(5-oxopyrrolidin-3-yl)methyl]amino}-5,7-dihydro-6H-pyrrolo[2,3-d]pyrimidin-6-one] | 0.1 | 16 |
| CC1(C)CCN(c2nc(-c3nn(Cc4ccccc4F)c4ncccc34)nc3c2C(C)(C)C(=O)N3)CC1 [Example 68, 4-(4,4-dimethylpiperidin-1-yl)-2-[1-(2-fluorobenzyl)-1H-pyrazolo[3,4-b]pyridin-3-yl]-5,5-dimethyl-5,7-dihydro-6H-pyrrolo[2,3-d]pyrimidin-6-one] | 0.1 | 35 |
| CC1(C)C(=O)Nc2nc(-c3nn(Cc4ccccc4F)c4ncccc34)nc(Nc3ccncc3)c21 [Example 69, 2-[1-(2-fluorobenzyl)-1H-pyrazolo[3,4-b]pyridin-3-yl]-5,5-dimethyl-4-(pyridin-4-ylamino)-5,7-dihydro-6H-pyrrolo[2,3-d]pyrimidin-6-one] | 0.3 | 46 |
| CN1CCN(c2nc(-c3nn(Cc4ccccc4F)c4ncccc34)nc3c2C(C)(C)C(=O)N3)CC1 [Example 70, 2-[1-(2-fluorobenzyl)-1H-pyrazolo[3,4-b]pyridin-3-yl]-5,5-dimethyl-4-(4-methylpiperazin-1-yl)-5,7-dihydro-6H-pyrrolo[2,3-d]pyrimidin-6-one] | 0.03 | 80 |
| CCOCCCNc1nc(-c2nn(Cc3ccccc3F)c3ncccc23)nc2c1C(C)(C)C(=O)N2 [Example 71, 4-[(3-ethoxypropyl)amino]-2-[1-(2-fluorobenzyl)-1H-pyrazolo[3,4-b]pyridin-3-yl]-5,5-dimethyl-5,7-dihydro-6H-pyrrolo[2,3-d]pyrimidin-6-one] | 0.01 | 42 |
| CC1(C)C(=O)Nc2nc(-c3nn(Cc4ccccc4F)c4ncccc34)nc(N3CCOCC3)c21 [Example 72, 2-[1-(2-fluorobenzyl)-1H-pyrazolo[3,4-b]pyridin-3-yl]-5,5-dimethyl-4-(morpholin-4-yl)-5,7-dihydro-6H-pyrrolo[2,3-d]pyrimidin-6-one] | 0.1 | 110 |
| CC1(C)C(=O)Nc2nc(-c3nn(Cc4ccccc4F)c4ncccc34)nc(NCCC(N)=O)c21 [Example 73, N^3-{2-[1-(2-fluorobenzyl)-1H-pyrazolo[3,4-b]pyridin-3-yl]-5,5-dimethyl-6-oxo-6,7-dihydro-5H-pyrrolo[2,3-d]pyrimidin-4-yl}-beta-alaninamide] | 0.3 | 16 |
| COCCCNc1nc(-c2nn(Cc3ccccc3F)c3ncccc23)nc2c1C(C)(C)C(=O)N2 [Example 74, 2-[1-(2-fluorobenzyl)-1H-pyrazolo[3,4-b]pyridin-3-yl]-4-[(3-methoxypropyl)amino]-5,5-dimethyl-5,7-dihydro-6H-pyrrolo[2,3-d]pyrimidin-6-one] | 0.01 | 110 |
| COCCN(C)c1nc(-c2nn(Cc3ccccc3F)c3ncccc23)nc2c1C(C)(C)C(=O)N2 [Example 75, 2-[1-(2-fluorobenzyl)-1H-pyrazolo[3,4-b]pyridin-3-yl]-4-[(2-methoxyethyl)(methyl)amino]-5,5-dimethyl-5,7-dihydro-6H-pyrrolo[2,3-d]pyrimidin-6-one] | 0.03 | 210 |
| CC1(C)C(=O)Nc2nc(-c3nn(Cc4ccccc4F)c4ncccc34)nc(N3CCC(F)(F)C3)c21 [Example 76, 4-(3,3-difluoropyrrolidin-1-yl)-2-[1-(2-fluorobenzyl)-1H-pyrazolo[3,4-b]pyridin-3-yl]-5,5-dimethyl-5,7-dihydro-6H-pyrrolo[2,3-d]pyrimidin-6-one] | 0.03 | 130 |

Second part, the compound after the results:

| MEC (minimal effective concentration) [1] [μm] | IC50 [2] [nM] | SMILES |
| --- | --- | --- |
| 0.03 | 330 | CC1(C)C(=O)Nc2nc(-c3nn(Cc4ccccc4F)c4ncccc34)nc(NCc3cccc(F)c3)c21 [Example 78, 4-[(3-fluorobenzyl)amino]-2-[1-(2-fluorobenzyl)-1H-pyrazolo[3,4-b]pyridin-3-yl]-5,5-dimethyl-5,7-dihydro-6H-pyrrolo[2,3-d]pyrimidin-6-one] |
| 0.03 | 290 | CC1(C)C(=O)Nc2nc(-c3nn(Cc4ccccc4F)c4ncccc34)nc(N[C@@H]3CCCNC3=O)c21 [Example 81, 2-[1-(2-fluorobenzyl)-1H-pyrazolo[3,4-b]pyridin-3-yl]-5,5-dimethyl-4-[(2-oxopiperidin-3-yl)amino]-5,7-dihydro-6H-pyrrolo[2,3-d]pyrimidin-6-one] |
| 0.03 | 230 | CC1(C)C(=O)Nc2nc(-c3nn(Cc4ccccc4F)c4ncccc34)nc(NCc3ccccc3)c21 [Example 83, 4-(benzylamino)-2-[1-(2-fluorobenzyl)-1H-pyrazolo[3,4-b]pyridin-3-yl]-5,5-dimethyl-5,7-dihydro-6H-pyrrolo[2,3-d]pyrimidin-6-one] |
| 0.1 | 19 | CC1(C)C(=O)Nc2nc(-c3nn(Cc4ccccc4F)c4ncccc34)nc(NCc3cccnc3)c21 [Example 84, 2-[1-(2-fluorobenzyl)-1H-pyrazolo[3,4-b]pyridin-3-yl]-5,5-dimethyl-4-[(pyridin-3-ylmethyl)amino]-5,7-dihydro-6H-pyrrolo[2,3-d]pyrimidin-6-one] |
| 0.3 | 4.2 | CC1(C)C(=O)Nc2nc(-c3nn(Cc4ccccc4F)c4ncccc34)nc(NCc3ccncc3)c21 [Example 85, 2-[1-(2-fluorobenzyl)-1H-pyrazolo[3,4-b]pyridin-3-yl]-5,5-dimethyl-4-[(pyridin-4-ylmethyl)amino]-5,7-dihydro-6H-pyrrolo[2,3-d]pyrimidin-6-one] |
| 0.01 | 330 | CC1(C)C(=O)Nc2nc(-c3nn(Cc4ccccc4F)c4ncccc34)nc(NC[C@H]3CCCO3)c21 [Example 86, 2-[1-(2-fluorobenzyl)-1H-pyrazolo[3,4-b]pyridin-3-yl]-5,5-dimethyl-4-[(tetrahydrofuran-2-ylmethyl)amino]-5,7-dihydro-6H-pyrrolo[2,3-d]pyrimidin-6-one] |
